In patent US20040033982A1, “Viral inhibition by n-docosanol” (priority 2001, published 2004):
“Also recorded” adds a separate entry of the source. Where two headings read alike, the source gives them in different places.

Experiments:
wild-type HSV-2 = assay: Plaque formation by wild-type HSV-2 in Vero cells; type: cell-based; settings: FIG. 7, Panel A
Protocol: FIG. 7 depicts data showing that n-docosanol inhibits acyclovir-resistant HSV-2. Vero cells were cultured in 35-mm wells (6×10^5 cells per well) in medium alone (=none) or in the presence of the indicated concentration of acyclovir, n-docosanol-Pluronic F-68 suspension or control suspension (Pluronic F-68 only). The cultures were inoculated 24 hours later with 150 PFU of either wild-type HSV-2 or an acyclovir-resistant laboratory isolate from the wild-type HSV-2 that was plaque purified and passaged in 20 μg/ml acyclovir 44 hours later, the plates were incubated, fixed, stained, and scored for numbers of plaques. The data presented are means of plaques scored from duplicate cultures. The percent inhibition observed in cultures treated with acyclovir or n-docosanol relative to untreated control cultures is denoted in parentheses.

HSV-2 = assay: Fusion of octadecyl rhodamine B chloride-labeled HSV-2 with NC-37 human B cells; type: cell-based
Protocol: NC-37 human B cells were inoculated in the presence of 15 mM n-docosanol, the corresponding concentration of Tetronic 908 (0.1 mM) or without addition. Cells were harvested and R-18-labeled HSV-2 was added to aliquots in the presence of compounds at their original concentration. Following incubation at 37° C. for the times indicated, cells were fixed and fluorescence intensity determined by FACScan.
The HSV envelope was labeled with octadecyl rhodamine B chloride (R-18). NC-37 human B cells were inoculated at 2.5×10^5 cells/ml, 25 ml per flask. Cells were incubated overnight at 37° C. with no addition or in the presence of 15 mM n-docosanol or the corresponding concentration of Tetronic 908. […] Fluorescence intensity was measured by using a fluorescence-activated cell sorter (FACScan; Becton-Dickinson).
Because of the selectivity of the inhibitory effects of n-docosanol for lipid-enveloped fusion-dependent viruses and the absence of viricidal effects, we considered the possibility that n-docosanol may inhibit viral entry by altering target cell membranes to prevent effective fusion of viral particles with target cells. To investigate the effects of n-docosanol on HSV fusion with cellular membranes we conducted fluorescence dequenching assays. […] This relieves fluorescence self-quenching and causes an increase in signal intensity.

Vero cells = assay: Cellular uptake, distribution and metabolism of radiolabeled n-docosanol; type: in vitro ADME, African Green monkey
Protocol: FIG. 10 depicts data showing that radioactive metabolites of n-[^14C]docosanol display the properties of phosphatidylcholine and phosphatidylethanolamine. A portion (0.5 ml) of the methanol eluate of the silica lipid fractionation was evaporated under nitrogen, resuspended in 20 μl chloroform:methanol (3:2; v:v) and spotted on a silica thin layer chromatography (TLC) sheet. After development with chloroform:methanol:acetic acid:water (60:50:1:4; v:v:v:v), the positions of standards were determined by staining with iodine vapors and the cpm per fraction determined by scintillation spectrometry after cutting the plastic-backed sheet into 5 mm strips.
FIG. 11 depicts data showing that n-[^14C]-Docosanol is metabolized more by Vero cells than by MDBK cells. Vero or MDBK cells were plated as described. n-[^14C]-docosanol was added to […] (0.24 mM Tetronic 908) and the cultures were incubated 72 hours at 37° C./CO2. Cells were extracted and analyzed on TLC with hexane:diethyl ether:acetic acid (20:30:1; v:vv) as the developing solvent. With this solvent system the polar phosphatides remain at the origin. The position of migration of n-[^14C]-docosanol is indicated. Duplicate plates were treated with an identical suspension lacking the radioactive label, and the numbers of cells in these duplicate plates were determined by counting cells excluding trypan blue with a hemocytometer.
In order to better define the precise mechanism by which n-docosanol exerts its antiviral activity, the cellular uptake, distribution, and metabolism of n-docosanol from surfactant-stabilized suspensions has been studied. The results of such studies have provided some interesting insight into the metabolic basis of the compound's antiviral action. It has been shown that radioactively labeled n-docosanol is progressively incorporated into cultured Vero cells, reaching a peak uptake per cell between 6 and 12 hours after exposure. The process is irreversible, since once the compound is cell-associated it cannot be removed even with extensive washing with cesium bromide, which effectively removes nonspecifically associated cell-bound particles.
Nonmetabolized n-docosanol was previously eluted from the silica with chloroform. As shown, approximately 62% of the counts migrated in the region of phosphatidylcholine and 38% migrated in the region of phosphatidylethanolamine.
(§1) Of the counts that are metabolized in two cells lines, the relative amounts in the major classes of phosphatides that are formed, phosphatidylcholine and phosphatidylethanolamine, are not different in the two cell lines.

HSV = assay: HSV-induced plaques in Vero versus MDBK cells; type: cell-based
Source text: as §1

HIV-1 = HIV-1 replication in PHA/IL-2-stimulated peripheral blood mononuclear cells (p24 ELISA); type: cell-based, human; settings: 4 days after inoculation
Protocol: FIG. 13 depicts data showing that n-docosanol inhibits in vitro replication of HIV-1 in cultures of PHA/IL-2-stimulated human peripheral blood mononuclear cells. Human peripheral blood mononuclear cells were cultured in medium containing 1 μg/ml PHA plus 5 units/ml IL-2 alone or also containing 100 μg/ml PFA, the indicated dosage of n-docosanol/Pluronic F68, or the amount of Pluronic F-68 control vehicle contained in the high dose of n-docosanol/Pluronic F-68. After overnight incubation, the cultures were inoculated with HIV-1 at a multiplicity of infection of 1 virion/cell. After 24 hours incubation at 37° C., the cultures were washed and inoculated with fresh medium containing PHA and IL-2, but lacking inhibitor. Replication of HIV-1 was determined 4 days later by quantitation of viral antigens by a p24-specific ELISA for HIV-1.
The initial studies on HIV were conducted in collaboration with a U.S. National Institutes of Health Laboratory and one of several experiments of this type is summarized in FIG. 13. Normal human peripheral blood mononuclear cells were activated with 1 μg/ml PHA plus 5 units/ml of IL-2 in medium alone or in the presence of n-docosanol, Pluronic […] control vehicle, or phosphonformic acid (PFA). The next day, the cultures were inoculated with HIV-1 and examined 4 days later for evidence of viral replication by detection of the p24 viral antigen.

[1] = saturating concentrations, within 24 hours

## CCCCCCCCCCCCCCCCCCCCCCO [n-docosanol]
wild-type HSV-2
  inhibition of plaque formation: inhibit plaque formation by wild type HSV-2 equally
HSV-2; Human alphaherpesvirus 2, NC-37, read-out: inhibition of fluorescent response compared to Tetronic control
  inhibition at 15000 µM: ≤ 76%
HSV-2; Human alphaherpesvirus 2, NC-37, read-out: inhibition of relative increase in fluorescence intensity compared to cells receiving no treatment
  inhibition at 15000 µM: ~50%
Vero cells
  total uptake and relative metabolic conversion, Vero versus MDBK cells: 3-4 times higher
Vero cells; after 12 hours of exposure
  radioactive compound associated with nuclear fractions: less than 1%
  radioactive compound contained in cell membranes: 75%
Vero cells; radiolabeled n-docosanol
  molecules of n-docosanol added to culture that enter the cell: less than 1 out of 1000
Vero cells; [1]
  cell-associated amount: ~8×10^9 molecules per cell
  fraction of total n-docosanol added that becomes cell-associated: less than 1%
HSV
  effectiveness in inhibiting HSV-induced plaques, Vero versus MDBK cells: 3-4 fold
HIV-1
  inhibitory activity against HIV-1 (p24 viral antigen): dose-related inhibitory activity; also recorded: comparable to that observed with the very potent antiviral compound, phosphonoformic acid (PFA)
